Measured values: paper PMC7051184, “C9orf72 arginine-rich dipeptide repeat proteins disrupt karyopherin-mediated nuclear import” (eLife, 2020)
Where a SMILES comes first, the peptide text is derived from it.

How the values were obtained:
[1] = target: passive nuclear influx of 40 kD dextran; test: Passive import assay, 40 kD dextran, permeabilized HeLa; format: cell-based, human; conditions: preincubation 30–60 min, with energy and lysate; imaged 5 min
[2] = system: passive nuclear influx of GFP; test: Passive import assay, GFP, permeabilized HeLa; format: cell-based, human; conditions: preincubation 30–60 min, with energy and lysate; imaged 5 min
[3] = target: importin β-mediated nuclear import of Rango (Homo sapiens, UniProt Q14974); test: Permeabilized cell nuclear import assay, Rango, mouse primary cortical neurons; format: cell-based; conditions: for Effect on Rango import at steady state: 100 µM, fixed at 2 hr; for Effect on Rango import, time-lapse imaging: 30 min, up to 100 µM
importin β-mediated nuclear import of Rango, sequence (Q14974 whole entry): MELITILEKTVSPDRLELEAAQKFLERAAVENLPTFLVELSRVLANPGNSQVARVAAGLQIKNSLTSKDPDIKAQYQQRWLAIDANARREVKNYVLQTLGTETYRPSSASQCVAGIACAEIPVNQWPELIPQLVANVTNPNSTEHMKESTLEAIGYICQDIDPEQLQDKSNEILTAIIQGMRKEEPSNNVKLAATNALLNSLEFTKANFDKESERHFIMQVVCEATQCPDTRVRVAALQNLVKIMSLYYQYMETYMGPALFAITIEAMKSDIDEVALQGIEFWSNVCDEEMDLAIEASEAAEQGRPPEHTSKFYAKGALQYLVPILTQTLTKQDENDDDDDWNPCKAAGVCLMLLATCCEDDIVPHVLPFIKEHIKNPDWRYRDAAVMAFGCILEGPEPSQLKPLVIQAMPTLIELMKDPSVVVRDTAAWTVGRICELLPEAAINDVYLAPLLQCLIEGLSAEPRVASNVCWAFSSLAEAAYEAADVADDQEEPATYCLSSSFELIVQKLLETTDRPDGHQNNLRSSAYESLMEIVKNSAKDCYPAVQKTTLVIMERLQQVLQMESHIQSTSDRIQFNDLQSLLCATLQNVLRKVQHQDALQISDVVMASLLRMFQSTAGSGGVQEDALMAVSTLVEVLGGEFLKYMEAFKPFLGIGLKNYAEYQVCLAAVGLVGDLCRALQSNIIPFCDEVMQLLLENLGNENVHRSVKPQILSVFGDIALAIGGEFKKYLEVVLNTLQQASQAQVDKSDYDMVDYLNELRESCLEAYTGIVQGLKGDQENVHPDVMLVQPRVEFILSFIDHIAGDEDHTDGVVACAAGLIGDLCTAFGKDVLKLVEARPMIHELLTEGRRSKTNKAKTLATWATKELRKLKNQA
Source text: All animal procedures were approved by the Johns Hopkins Animal Care and Use Committee. Timed pregnant C57BL/6J females (Jackson Laboratory, Bar Harbor, ME) were sacrificed by cervical dislocation at E16, cortex dissociated, and cells plated at 50,000/well on poly-D-lysine/laminin-coated, optical glass-bottom 96-well plates. Growth medium consisted of Neurobasal supplemented with B27, Glutamax, and penicillin/streptomycin (Gibco/ThermoFisher). At 5–7 days in vitro, neurons were rinsed in prewarmed PBS and permeabilized for 4 min. at 37° in a hypotonic solution containing […] Tris-HCl pH 7.5 (to cause osmotic swelling) and 50–150 mg/ml BSA (for molecular crowding/mechanical support). Following permeabilization, cells were placed on ice and rinsed 2 × 5 min in transport buffer (TRB, 20 mM HEPES, 110 mM KOAc, 2 mM Mg(OAc)2, 5 mM NaOAc, 0.5 mM EGTA, 250 mM sucrose, pH 7.3, with protease inhibitor cocktail). All rinse and assay buffers were supplemented with 50 mg/mL BSA. The optimal hypotonic buffer and BSA concentration varied by batch, and was optimized prior to each set of assays for ability to permeabilize the majority of plasma membranes while maintaining nuclear exclusion of a 70 kD fluorescent dextran (ThermoFisher).
Concentrated whole cell lysates were prepared from HEK293T cells (ATCC, mycoplasma negative and validated by STR profiling), grown in 150 mm dishes and sonicated on ice in 1X TRB in the presence of protease inhibitor cocktail (Roche). The lysates were clarified (15 min, 14000 g, 4C), snap frozen in liquid nitrogen, and stored in single use aliquots at −80C. Total HEK cell RNA was extracted using miRNEasy kits according to the manufacturers’ protocol, with DNase digestion (Qiagen). RNA concentration was measured by Nanodrop (ThermoFisher), and all 260/280 ratios were verified to be > 2.0. Energy regeneration (ER) mix consisted of 100 µM ATP, 100 µM GTP, 4 mM creatine phosphate, and 20 U/mL creatine kinase (Roche).
Reaction mixes consisting of 2.5 mg/ml lysate, ER, fluorescent cargo (200 nM Rango and YFP-M9-CFP, 500 nM GST-GFP-NLS), Hoechst, DPRs, RNA, or inhibitors (100 µM importazole (IPZ, Millipore Sigma); 0.8 mg/mL wheat germ agglutinin (WGA, Millipore Sigma) were assembled on ice during cell permeabilization. DPRs or inhibitors were allowed to equilibrate in cell lysate for at least 30 min prior to initiation of transport. Every plate included: (1) Cargo alone: fluorescent cargo, but no ER or lysate, (2) Untreated controls: fluorescent cargo, ER, and lysate, and (3) Inhibitor: fluorescent cargo, ER, lysate, and IPZ (Rango and GST-GFP-NLS reactions) or WGA (YFP-M9-CFP). Preassembled transport reactions were then transferred onto permeabilized cells via multichannel pipette, and allowed to proceed at room temperature for 2 hr (Rango, YFP-M9-CFP) or 4 hr (GST-GFP-NLS). Cells were fixed in 4% paraformaldehyde/PBS, rinsed 2x with PBS, and transferred to 50% glycerol/PBS for immediate imaging.
For a subset of neuron transport assays, transport was monitored live via time lapse imaging every 5 min for 30 min. In a subset of HeLa assays, transport reactions were centrifuged before use at 14,000g × 15 min to separate soluble and insoluble fractions. In another variation, the transport lysate + DPR and ER mix was allowed to preincubate on the permeabilized HeLa cells for 1 hour prior to initiation of transport, rinsed 1x with TRB, and transport initiated with fresh lysate, cargo, and ER.
Multiple non-overlapping fields per well (4 for time-lapse imaging, 9-16 for fixed imaging), were captured at 40x on an ImageXpress Micro XLS high-content microscope (Molecular Devices, San Jose, CA), and the ratio of nuclear to cytoplasmic fluorescence intensity was calculated using the MetaXpress automated translocation-enhanced module. Raw data were filtered to exclude autofluorescence and the mean N/C ratio from wells without ER or cell lysate was subtracted from all values.

[4] = system: Ran; test: DPR aggregation assay and western blot, Ran; format: biochemical, human; conditions: for Ran band density, Pellet / Ran band density, Supernatant: 100 µM 10mer in 2.5 mg/ml HEK lysate, normalized to untreated HEK; for Ran band density, % untr control: Fig 5-suppl 3C, normalized to untreated HEK on same membrane;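 as to Ran band density, % untr control: RNA rows contain added 20 µg total HEK RNA while no-RNA rows lack it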
Protocol: (§1) Supernatant and pellet fractions (for all 5 DPRs, and control/buffer only) were prepared as in the nuclear transport assays, by adding 100 µM 10mers to 2.5 mg/ml HEK lysate in 100 µL TRB. Supernatants were boiled in Laemmli (BioRad) for 5 min. Pellets were boiled for 15 min followed by sonication in order to fully disperse aggregates for SDS-PAGE. Equal volumes of supernatant and pellet fractions were run on 4–12% Bolt Bis-Tris Plus gels (ThermoFisher), transferred to nitrocellulose membrane using an iBlot2 dry blotting system (ThermoFisher). Protein loading was analyzed by BLOT-Faststain (G-biosciences, St. Louis, MO), according to the manufacterers’ instructions. For immunodetection, membranes were blocked with 5% non-fat milk in TBST and probed by sequential incubation with the primary antibodies as detailed in the table below. Detection was by HRP-conjugated secondary antibodies/chemiluminescence using an ImageQuant LAS 4000 system (GE, Chicago, IL). To permit sequential probing of membranes without stripping, signals were quenched by incubation with prewarmed 30% H20_2 for 20 min ([Sennepin et al., 2009]). Band intensities were measured by ImageQuant software. For pellet vs. supernatant fractions, all were expressed as percent untreated control. For blots in Figure 1E, samples were run on 4–20% SDS PAGE minigels (ThermoFisher) and blotted to PVDF membranes (Immun-Blot PVDF, Bio-Rad) using the Bio-Rad TransBlot Turbo apparatus, and probed as above. The chemiluminescence signal was captured with a Bio-Rad ChemiDoc XRS+ digital imaging system.

[5] = system: RPS6; test: DPR aggregation assay and western blot, RPS6; format: biochemical, human; conditions: for Rps6 band density, % untr control: Fig 5-suppl 3C, normalized to untreated HEK on same membrane; for RPS6 band density, % control: normalized to untreated HEK cells on the same membrane;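 as to Rps6 band density, % untr control: RNA rows contain added 20 µg total HEK RNA while no-RNA rows lack it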
Protocol: as §1

[6] = Pellet, no RNA (Untreated), blot 1
[7] = Pellet, no RNA (Untreated), blot 2
[8] = Supernatant, no RNA (Untreated), blot 1
[9] = Supernatant, no RNA (Untreated), blot 2

Row | Compound | Effect on passive nuclear influx of 40-kD dextran [1] | Effect on passive nuclear influx of GFP [2] | Effect on Rango import at steady state [3] | Effect on Rango import, time-lapse imaging [3] | Ran band density, % untr control ([4]; Pellet, RNA, blot 1) [%] | Ran band density, % untr control ([4]; Pellet, RNA, blot 2) [%] | Ran band density, % untr control [4, 6] [%] | Ran band density, % untr control [4, 7] [%] | Ran band density, % untr control ([4]; Supernatant, RNA, blot 1) [%] | Ran band density, % untr control ([4]; Supernatant, RNA, blot 2) [%] | Ran band density, % untr control [4, 8] [%] | Ran band density, % untr control [4, 9] [%] | Rps6 band density, % untr control ([5]; Pellet, RNA, blot 1) [%] | Rps6 band density, % untr control ([5]; Pellet, RNA, blot 2) [%] | Rps6 band density, % untr control [5, 6] [%] | Rps6 band density, % untr control [5, 7] [%] | Rps6 band density, % untr control ([5]; Supernatant, RNA, blot 1) [%] | Rps6 band density, % untr control ([5]; Supernatant, RNA, blot 2) [%] | Rps6 band density, % untr control [5, 8] [%] | Rps6 band density, % untr control [5, 9] [%] | other results
1 | GPGPGPGPGPGPGPGPGPGPKC [GP10, Synthetic 10-mer GP dipeptide repeat with C-terminal lysine and cysteine] | not observed | not observed | no effect | no effect | – | – | – | – | – | – | – | – | – | – | – | – | – | – | – | – | –
2 | N=C(N)NCCC[C@H](NC(=O)[C@@H]1CCCN1C(=O)[C@H](CCCNC(=N)N)NC(=O)[C@@H]1CCCN1C(=O)[C@H](CCCNC(=N)N)NC(=O)[C@@H]1CCCN1C(=O)[C@H](CCCNC(=N)N)NC(=O)[C@@H]1CCCN1C(=O)[C@H](CCCNC(=N)N)NC(=O)[C@@H]1CCCN1C(=O)[C@H](CCCNC(=N)N)NC(=O)[C@@H]1CCCN1C(=O)[C@H](CCCNC(=N)N)NC(=O)[C@@H]1CCCN1C(=O)[C@H](CCCNC(=N)N)NC(=O)[C@@H]1CCCN1C(=O)[C@H](CCCNC(=N)N)NC(=O)[C@@H]1CCCN1C(=O)[C@H](CCCNC(=N)N)NC(=O)[C@@H]1CCCN1)C(=O)O [PR10] (H-PRPRPRPRPRPRPRPRPRPR-OH; N-terminus and C-terminus assumed) | – | – | – | dose-dependent inhibition of transport | 201.97 | 271.01 | 172.26 | 224.02 | 114.46 | 110.30 | 105.51 | 113.60 | 396.86 | 295.15 | 455.82 | 297.04 | 8.34 | 9.83 | 2.35 | 1.09 | Ran band density, Pellet ([4]; Blot 1): 101.8 % control; Ran band density, Supernatant ([4]; Blot 1): 104.7 % control; Ran band density, Pellet ([4]; Blot 2): 132.9 % control; Ran band density, Supernatant ([4]; Blot 2): 105.7 % control; RPS6 band density, % control ([5]; Pellet, Blot 1): 219.0 % control; RPS6 band density, % control ([5]; Pellet, Blot 2): 275.0 % control; RPS6 band density, % control ([5]; Supernatant, Blot 1): 3.7 % control; RPS6 band density, % control ([5]; Supernatant, Blot 2): 6.4 % control
3 | PA10: Synthetic 10-mer PA dipeptide repeat with C-terminal lysine and cysteine (PAPAPAPAPAPAPAPAPAPAKC) | not observed | not observed | only trace inhibition | no effect | – | – | – | – | – | – | – | – | – | – | – | – | – | – | – | – | –
4 | GA10: Synthetic 10-mer GA dipeptide repeat with C-terminal lysine and cysteine (GAGAGAGAGAGAGAGAGAGAKC) | not observed | not observed | only trace inhibition | no effect | 129.05 | 192.76 | 79.12 | 116.78 | 116.22 | 99.76 | 117.84 | 105.67 | 45.85 | 60.48 | 113.52 | 119.87 | 64.65 | 73.01 | 90.06 | 67.32 | NCT inhibition in permeabilized neurons ([3]; high concentrations): only minimal inhibition at high concentrations
